IC50 data for 31 compounds are collected here from patent US10828301B2, “2,4-pyrimidinediamine compounds and their uses” (Rigel Pharmaceuticals, Inc, priority 2002, dated 2020).

Assay [1] concerns cultured human mast cells (CHMC). Briefly: CHMC low cell density IgE activation: tryptase and LTC4 assays. The class given is cell-based. The settings on record: Homo sapiens, Mast cell, Low Density CHMC, anti-IgE activation, tryptase readout; read-out: CHMC anti-IgE Tryptase. A digest of the protocol: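 Cultured human mast cells at low density (1000-1500 per well) rested 1 h at 37° C, then stimulated with anti-IgE for 30 min at 37° C. Supernatant tryptase measured with fluorogenic substrate (30 min, room temperature); LTC4 quantified by ELISA on diluted supernatant.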

The test system is the same in assay [2]. In words: CHMC low cell density ionomycin activation: tryptase assay. As to conditions: Homo sapiens, Mast cell, Low Density CHMC, ionomycin activation, tryptase readout; read-out: CHMC Ionomycin Tryptase. It is filed as cell-based.

Where a name gives a salt, the structure may show the parent alone. Bounds are passed on as bounds.

In the case of `Oc1cccc(Nc2nc(Nc3ccc4cc[nH]c4c3)ncc2F)c1` [Compound R926751, 5-Fluoro-N4-(3-hydroxyphenyl)-N2-[(1H)-indol-6-yl]-2,4-pyrimidinediamine], the values for the IC50 in assay [1] and in assay [2] were 0.598 µM and greater than 10 µM, respectively.
In the same order, the values of `OB(O)c1cccc(Nc2nc(Nc3cccc(O)c3)ncc2F)c1` [Compound R926755, 5-Fluoro-N4-(3-dihydroxyborylphenyl)-N2-(3-hydroxyphenyl)-2,4-pyrimidinediamine] are 1.69 µM and greater than 10 µM.
`OBc1cccc(Nc2nc(Nc3ccc4c(c3)OCCO4)ncc2F)c1` [Compound R926756, N2-(3,4-Ethylenedioxyphenyl)-5-fluoro-N4-(3-hydroxyborylphenyl)-2,4-pyrimidinediamine]: the IC50 in assay [1] is 1.36 µM; in assay [2], greater than 10 µM.
The like results for `COc1cc(Nc2ncc(F)c(Nc3cccc(O)c3)n2)cc(OC)c1OC` [Compound R926761, 5-Fluoro-N4-(3-hydroxyphenyl)-N2-(3,4,5-trimethoxyphenyl)-2,4-pyrimidinediamine] were, in that order, 0.245 µM and greater than 10 µM.
`COc1cc(Nc2ncc(F)c(Nc3ccc4c(c3)OCCO4)n2)cc(OC)c1OC` [Compound R926762, N4-(3,4-Ethylenedioxyphenyl)-5-fluoro-N2-(3,4,5-trimethoxyphenyl)-2,4-pyrimidinediamine]: the IC50 in assay [1] was 0.386 µM; in assay [2], greater than 10 µM.
In the case of `Oc1c(Cl)cc(Nc2ncc(F)c(Nc3ccc4c(c3)OCCO4)n2)cc1Cl` [Compound R926763, N4-(3,4-Ethylenedioxyphenyl)-5-fluoro-N2-(3,5-dichloro-4-hydroxyphenyl)-2,4-pyrimidinediamine], the IC50 was 0.195 µM in assay [1] and greater than 10 µM in assay [2].
In the same order, the values of `CN(C)CCOc1cccc(Nc2ncc(F)c(Nc3ccc4c(c3)OCCO4)n2)c1` [Compound R926771, N2-[3-[2-(N, N-Dimethylamino)ethyloxy]phenyl]-N4-(3,4-Ethylenedioxyphenyl)-5-fluoro-2,4-pyrimidinediamine Hydrogen Chloride Salt] are 2.05 µM and greater than 10 µM.
As for `Oc1cccc(Nc2nc(Nc3ccc(-n4cnc(Cl)c4Cl)cc3)ncc2F)c1` [Compound R926777, N2-[4-(4,5-Dichloro-1H-imidazol-1-yl)phenyl]-5-fluoro-N4-(3-hydroxyphenyl)-2,4-pyrimidinediamine], the IC50 in assay [1] was 0.378 µM; in assay [2] it was greater than 10 µM.
In the same order, the values of `CC(C)c1ccc(Nc2ncc(F)c(Nc3cccc(O)c3)n2)cc1` [Compound R926778, 5-Fluoro-N4-(3-hydroxyphenyl)-N2-(4-isopropylphenyl)-2,4-pyrimidinediamine] are 0.414 µM and greater than 10 µM.
The like results for `O=C(NCC(O)CO)c1cc2cc(Nc3ncc(F)c(Nc4ccc5c(c4)OCCO5)n3)ccc2o1` (centres unmarked) [Compound R926783, N2-[2-(N-2,3-Dihydroxypropylamino)carbonylbenzofuran-5-yl]-N4-(3,4-ethylenedioxyphenyl)-5-fluoro-2,4-pyrimidinediamine] were, in that order, 0.304 µM and greater than 10 µM.
For the compound `CC(=O)Nc1cccc(OCCCNc2ncc(F)c(Nc3ccc4c(c3)OCCO4)n2)c1` [Compound R926787, N2-[3-(3-Acetamidophenoxy)propyl]-N4-(3,4-ethylenedioxyphenyl)-5-fluoro-2,4-pyrimidinediamine], the IC50 is 5.42 µM in assay [1] and greater than 10 µM in assay [2].
On to `Fc1cnc(Nc2ccc(-n3cnc(Cl)c3Cl)cc2)nc1Nc1ccc2c(c1)OCCO2` [Compound R926788, N2-[4-(4,5-Dichloro-1H-imidazol-1-yl)phenyl]-N4-(3,4-ethylenedioxyphenyl)-5-fluoro-2,4-pyrimidinediamine], for which the figures for the IC50 in assay [1] and in assay [2] were 0.336 µM and 6.34 µM, respectively.
In the same order, the values of `COc1ccc(Nc2ncc(F)c(Nc3ccc4c(c3)OCCO4)n2)c(OC)c1` [Compound R926789, N2-(2,4-Dimethoxyphenyl)-N4-(3,4-ethylenedioxyphenyl)-5-fluoro-2,4-pyrimidinediamine] are 2.31 µM and greater than 10 µM.
With `CC(C)c1ccc(Nc2ncc(F)c(Nc3ccc4c(c3)OCCO4)n2)cc1` [Compound R926790, N4-(3,4-Ethylenedioxyphenyl)-5-fluoro-N2-(4-isopropylphenyl)-2,4-pyrimidinediamine], the IC50 in assay [1] is 0.462 µM; in assay [2], 7.41 µM.
The like results for `Cc1cc(Nc2ncc(F)c(Nc3ccc4c(c3)OCCO4)n2)c(C)cc1O` [Compound R926792, N2-(2,5-Dimethyl-4-hydroxyphenyl)-N4-(3,4-ethylenedioxyphenyl)-5-fluoro-2,4-pyrimidinediamine] were, in that order, 3.2 µM and greater than 10 µM.
In the same order, the values of `COc1cc(Nc2nc(Nc3cccc(O)c3)ncc2F)cc(OC)c1` [Compound R926802, N4-(3,5-Dimethoxyphenyl)-N2-(3-hydroxyphenyl)-5-fluoro-2,4-pyrimidinediamine] are 1.25 µM and greater than 10 µM.
In the same order, the values of `CCOC(=O)c1cc2cccc(Nc3ncc(F)c(Nc4cc(OC)cc(OC)c4)n3)c2[nH]1` [Compound R926803, N4-(3,5-Dimethoxyphenyl)-N2-(2-ethoxycarbonylindol-7-yl)-5-fluoro-2,4-pyrimidinediamine] are 1.54 µM and greater than 10 µM.
For `CCOC(=O)c1cc2cccc(Nc3cc(Nc4ccc5c(c4)OCCO5)c(F)cn3)c2[nH]1` [Compound R926808, N2-(2-Ethoxycarbonylindol-7-yl)-N4-(3,4-ethylenedioxyphenyl)-5-fluoro-2,4-pyridinediamine], the IC50 in assay [1] was 0.368 µM; in assay [2], greater than 10 µM.
In the same order, the values of `Fc1cnc(Nc2cccc(-c3cnco3)c2)nc1Nc1ccc2c(c1)OCCO2` [Compound R926813, N4-(3,4-Ethylenedioxyphenyl)-5-fluoro-N2-[3-(1,3-oxazol-5-yl)phenyl]-2,4-pyrimidinediamine] are 0.152 µM and greater than 10 µM.
The like results for `CCOC(=O)c1cc2cccc(Nc3cc(Nc4cccc(O)c4)c(F)cn3)c2[nH]1` [Compound R926814, N2-(2-Ethoxycarbonylindol-7-yl)-5-fluoro-N4-(3-hydroxyphenyl)-2,4-pyridinediamine] were, in that order, 1.1 µM and greater than 10 µM.
In the same order, the values of `Oc1cccc(Nc2nc(Nc3cccc(-c4cnco4)c3)ncc2F)c1` [Compound R926831, 5-Fluoro-N4-(3-hydroxyphenyl)-N2-[3-(1,3-oxazol-5-yl)phenyl]-2,4-pyrimidinediamine] are 0.133 µM and 10 µM.
As to `Oc1cccc(Nc2nc(Nc3cccc(-c4cc[nH]n4)c3)ncc2F)c1` [Compound R926841, 5-Fluoro-N4-(3-hydroxyphenyl)-N2-[3-(1H-pyrazol-3-yl)phenyl]-2,4-pyrimidinediamine], the IC50 in assay [1] was 0.551 µM; in assay [2], greater than 10 µM.
The like results for `Oc1cccc(Nc2nc(Nc3cccc(-c4nnn[nH]4)c3)ncc2F)c1` [Compound R926842, 5-Fluoro-N4-(3-hydroxyphenyl)-N2-[3-(tetrazol-5-yl)phenyl]-2,4-pyrimidinediamine] were, in that order, 7.73 µM and greater than 10 µM.
In the same order, the values of `Fc1cnc(Nc2cccc(-c3nnn[nH]3)c2)nc1Nc1ccc2c(c1)OCCO2` [Compound R926843, 5-Fluoro-N4-(3,4-ethylenedioxyphenyl)-N2-[3-(tetrazol-5-yl)phenyl]-2,4-pyrimidinediamine] are 7.37 µM and greater than 10 µM.
In the same order, the values of `COc1ccc(Nc2ncc(F)c(Nc3ccc4c(c3)OCCO4)n2)c(C)c1` [Compound R926845, N4-(3,4-Ethylenedioxyphenyl)-5-fluoro-N2-(4-methoxy-2-methylphenyl)-2,4-pyrimidinediamine] are 2.56 µM and 7.81 µM.
Consider `COc1cc(Nc2ncc(F)c(Nc3cccc(O)c3)n2)c(OC)cc1Cl` [Compound R926857, N2-(4-Chloro-2,5-dimethoxyphenyl)-5-fluoro-N4-(3-hydroxyphenyl)-2,4-pyrimidinediamine], for which the IC50 in assay [1] was 1.21 µM; in assay [2] it was greater than 10 µM.
In the same order, the values of `Oc1cccc(Nc2nc(Nc3cc(Cl)c(O)c(Cl)c3)ncc2F)c1` [Compound R926890, 5-Fluoro-N2-(3,5-dichloro-4-hydroxyphenyl)-N4-(3-hydroxyphenyl)-2,4-pyrimidinediamine] are 0.361 µM and greater than 10 µM.
`Cc1cc(O)cc(N(c2ccc3c(c2)OCCO3)c2nc(N)ncc2F)c1` [Compound R926893, N4-(3,4-Ethylenedioxyphenyl)-5-fluoro-N4-(3-hydroxy-5-methylphenyl)-2,4-pyrimidinediamine]: the IC50 in assay [1] was 10 µM; in assay [2] it was greater than 10 µM.
The like results for `Fc1cc(Nc2ncc(F)c(Nc3ccc4c(c3)OCCO4)n2)cc(C(F)(F)F)c1` [Compound R926894, N4-(3,4-Ethylenedioxyphenyl)-5-fluoro-N2-(3-fluoro-5-trifluoromethylphenyl)-2,4-pyrimidinediamine] were, in that order, greater than 10 µM and greater than 10 µM.
As for `Cc1cc(Nc2ncc(F)c(Nc3ccc4c(c3)OCCO4)n2)cc(C(F)(F)F)c1` [Compound R926895, N4-(3,4-Ethylenedioxyphenyl)-5-fluoro-N2-(3-methyl-5-trifluoromethylphenyl)-2,4-pyrimidinediamine], the results for the IC50 in assay [1] and in assay [2] were 0.339 µM and greater than 10 µM, respectively.
In the same order, the values of `COc1ccc(C)c(Nc2ncc(F)c(Nc3ccc4c(c3)OCCO4)n2)c1` [Compound R926896, N4-(3,4-Ethylenedioxyphenyl)-5-fluoro-N2-(5-methoxy-2-methylphenyl)-2,4-pyrimidinediamine] are 1.62 µM and greater than 10 µM.
